Test results taken from patent US10017507B2, “Diaza-benzofluoranthrene compounds” (HARBIN PHARMACEUTICAL GROUP CO., LTD. GENERAL …, priority 2015, dated 2018).
Blank lines part the entries; values can stand above or below the compound they belong to.

Experiments:
[1] = system: pentylenetetrazole-kindling model of epilepsy; assay: Inhibition effect on pentylenetetrazole-kindling model of epilepsy in cynomolgus monkey; assay type: in vivo; conditions: 10 mg/kg
Excerpt: Test 3: Inhibition Effect on Pentylenetetrazole-Kindling Model of Epilepsy in Cynomolgus Monkey In this test, six male cynomolgus monkeys were selected, and each monkey was intragastrically administrated by nasal feeding. Besides pentylenetetrazole which was administrated by subcutaneous injection, the compound of Example 29 and carbamazepine were consecutively administered for 8 days, respectively. The monkeys were respectively given a solvent prior to the first administration, and were injected subcutaneously with pentylenetetrazole immediately after the last administration. The administration interval between two tests was about 10 days. Pentylenetetrazine was administered once to induce epilepsy prior to the first administration of the compound of Example 29. The dosage was calculated according to the latest weight of the animal, and the date of first administration was designated as Day 1. Surgical procedure: the animals were fed adaptively for at least one week in feeding facilities, and then they were anesthetized during preoperative preparation according to the company standards. The main operation procedures were as follows: cutting the head skin, fully exposing the skull, stripping the periosteum, and cleaning the skull surface with a dry absorbent cotton; drilling 2 holes on the skull of the cynomolgus monkey with cranial drill, implanting a brain electrode, and fixing it with dental cement; then burying two myoelectric electrodes into the neck muscles of the cynomolgus monkey, and burying eye-electric electrodes into the bilateral eye muscles, fixing the implant body in the abdominal muscle layer. Postoperative care was performed according to the company standards. The raw data was collected by Ponemah of DSI system, and analyzed and revised by Neuronscore. The data was shown by mean±standard error (Mean±SEM), statistical analysis was performed by t-test and ANOVA. P<0.05 indicated a significant difference, P<0.01 indicated a very significant difference, P<0.001 indicated an extremely significant difference. The characteristics of electroencephalic response and electroencephalic energy for pentylenetetrazole-kindling epilepsy were observed and analyzed, and then a comparison was made between Example 29 and carbamazepine in terms of the latency for the onset of epilepsy seizure, and the times and lasting time of clonic convulsions and tonic convulsions in cynomolgus monkey pentylenetetrazole-kindling model, so as to compare the pharmacodynamic inhibitory effect of Example 29 and carbamazepine on cynomolgus monkey pentylenetetrazole-kindling model. After the cynomolgus monkeys were injected subcutaneously with 40 mg/kg pentylenetetole on the back and were induced epilepsy-like behaviors, the electroencephalic response, electromyogrphic response and locomotor activity were detected by DSI wireless remote sensing signal recording system. […] The behaviors were divided into paroxysmal activity, clonic convulsion and tonic convulsions according to the status of epilepsy. The changes of electroencephalic energy within 4-24 Hz were statistically analyzed when cynomolgus monkeys suffered epileptic seizure within 24 hours after injection of pentylenetetrazole.

[2] = biological target: T1, PDE1A (Homo sapiens, UniProt P54750); assay: In vitro detection of phosphodiesterase (PDE): PDE1A enzyme activity by fluorescence polarization immunoassay; assay type: biochemical; conditions: human-derived enzyme, cAMP or cGMP substrate; read-out: IC50s for PDE1
T1 construct: purchased SignalChem
Outline: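 Human PDE1A (enzyme solution 3 pM) was preincubated 10 min at RT with compound in 10 mM Tris-HCl pH 7.5, 5 mM MgCl2, 0.01% Brij 35, 1 mM DTT, 1% DMSO, with Ca2+-calmodulin cofactor. Reaction ran 1 h at RT on […] cAMP or cGMP, then 90 min with antibody/tracer. FP at Ex/Em 620/688 was converted to AMP/GMP via standard curve to give IC50.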

[3] = Comparison of pharmacokinetics in Beagle dogs; assay type: in vivo
Description: Test 2: Comparison of Pharmacokinetics in Beagle Dogs
In this study, male Beagle dogs were given the compounds of the examples and vinpocetine (as a control compound) by intravenous injection or oral administration, respectively, then the drug concentration in plasma at different time points was determined by the LC/MS/MS method, so as to investigate the pharmacokinetic characteristics of the two test drugs in Beagle dogs.
Eight healthy adult Beagle dogs with a weight of 7.0 to 10.83 kg (purchased from Beijing Marshall Biotechnology Co., Ltd.) were selected. The formulation for intravenous injection group was DMSO: PEG400: water=5:20:75. A solvent was added to the test compound which had been accurately weighed, after vortex oscillation and ultrasound, a clear solution with a final concentration of 1.0 mg/mL was obtained. The solution was filtered with a filter membrane of 0.22 μm and stored at room temperature for use. The formulation for oral administration group was PEG 400: Tween 80: H2O=40:10:50. A solvent was added to the test compound which had been accurately weighed, after vortex oscillation and ultrasound, a clear solution with a final concentration of 1.5 mg/mL was obtained. The formulations for both the intravenous injection and the oral administration were formulated on the day of administration. The intravenous dose was 1.0 mg/kg, and the oral dose was 3.0 mg/kg. The whole blood for each test compound was respectively taken at 0.083 (for intravenous injection only), 0.25, 0.5, 1, 2, 4, 6, 8 and 24 hours after administration. The whole blood was centrifuged (3000 g, 15 min, 4° C.) to obtain the plasma. The drug concentration in each plasma sample was determined by LC/MS/MS method. The data about drug concentration in plasma was processed by WinNonlin™ Version 6.3 (Pharsight, Mountain View, Calif.) software, using a non-compartmental model, and the pharmacokinetic parameters were calculated by using the linear-logarithmic trapezoidal method.

[4] = within 24 hours, versus Vehicle group

SMILES: NC(=O)N1c2ccccc2C=Cc2ccccc21 [carbamazepine, reference compound]
latency prolonged than the Vehicle group ([1]; 8 days, versus Vehicle group): 20.34 min
latency, relative increase versus Vehicle group ([1]; 8 days, versus Vehicle group): 81%
latency for the onset of epilepsy seizure ([1]; continuous administration of 8 days, pentylenetetrazole 40 mg/kg s.c., Mean±SEM): 45.20 ± 9.11 min
lasting time of clonic convulsions and tonic convulsions ([1]; pentylenetetrazole-kindled, Mean±SEM): 4.71 ± 2.35 min
lasting time of convulsions shortened compared with the Vehicle Group ([1]; versus Vehicle group): 6.97 min
lasting time of convulsions, relative reduction versus Vehicle Group ([1]; versus Vehicle group): 60%
times of clonic convulsion and tonic convulsion ([1]; within 24 hours after pentylenetetrazol, Mean±SEM): 39.20±14.92
times of clonic and tonic convulsion reduced compared with the Vehicle Group [1, 4]: about 68 times
times of clonic and tonic convulsion, relative reduction versus Vehicle Group [1, 4]: 63%

SMILES: CCCC(O)(CCC)C1=C[C@]2(CC)CCCN3CCc4c(n1c1ccccc41)[C@@H]32 [Example 49, 4-((4^1S,13aS)-13a-ethyl-2,3,4^1,5,6,13a-hexahydro-1H-indolo[3,2,1-de]pyrido[3,2,1-ij][1,5]naphthyridin-12-yl) heptan-4-ol]
IC50 [2]: > 100 µM

SMILES: CC[C@@]12C=C(c3nc(C)no3)n3c4c(c5ccc(S(=O)(=O)NC)cc53)CCN(CCC1)[C@H]42 [Example 76, (4^1S,13aS)-13a-ethyl-N-methyl-12-(3-methyl-1,2,4-oxadiazol-5-yl)-2,3,4^1,5,6,13a-hexahydro-1H-indolo[3,2,1-de]pyrido[3,2,1-ij][1,5]naphthyridin-9-sulfonamide]
IC50 [2]: 1 to 20 µM

SMILES: CCc1noc(C2=C[C@]3(CC)CCCN4CCc5c(n2c2ccccc52)[C@@H]43)n1 [Example 33, 3-ethyl-5-((4^1S,13aS)-13a-ethyl-2,3,4^1,5,6,13a-hexahydro-1H-indolo[3,2,1-de]pyrido[3,2,1-ij][1,5]naphthyridin-12-yl)-1,2,4-oxadiazole]
IC50 [2]: 1 to 20 µM

SMILES: CC[C@@]12C=C(c3nccc(C)n3)n3c4c(c5ccccc53)CCN(CCC1)[C@H]42 [Example 8, (4^1S,13aS)-13a-ethyl-12-(4-methylpyrimidin-2-yl)-2,3,4^1,5,6,13a-hexahydro-1H-indolo[3,2,1-de]pyrido[3,2,1-ij][1,5]naphthyridine]
IC50 [2]: 20 to 100 µM

SMILES: CC[C@@]12C=C(c3nc(C)c(N4CCOCC4)o3)n3c4c(c5ccccc53)CCN(CCC1)[C@H]42 [Example 67, 4-(2-((4^1S,13aS)-13a-ethyl-2,3,4^1,5,6,13a-hexahydro-1H-indolo[3,2,1-de]pyrido[3,2,1-ij][1,5]naphthyridin-12-yl)-4-methyloxazol-5-yl)morpholine]
IC50 [2]: ≤ 1 µM

Now from value to compound:

IC50 [2]: 1 to 20 µM
SMILES: CC[C@@]12C=C(c3n[nH]c(=O)o3)n3c4c(c5ccccc53)CCN(CCC1)[C@H]42 [Example 16, 5-((4^1S,13aS)-13a-ethyl-2,3,4^1,5,6,13a-hexahydro-1H-indolo[3,2,1-de]pyrido[3,2,1-ij][1,5]naphthyridin-12-yl)-1,3,4-oxadiazol-2(3H)-one]

IC50 [2]: 1 to 20 µM
SMILES: CC[C@@]12C=C(c3noc(C4CCOCC4)n3)n3c4c(c5ccccc53)CCN(CCC1)[C@H]42 [Example 23, 3-((4^1S,13aS)-13a-ethyl-2,3,4^1,5,6,13a-hexahydro-1H-indolo[3,2,1-de]pyrido[3,2,1-ij][1,5]naphthyridin-12-yl)-5-(tetrahydro-2H-pyran-4-yl)-1,2,4-oxadiazole]

IC50 [2]: ≤ 1 µM
SMILES: CC[C@@]12C=C(c3nc(C)c(C(=O)NC)o3)n3c4c(c5ccccc53)CCN(CCC1)[C@H]42 [Example 64, 2-((4^1S,13aS)-13a-ethyl-2,3,4^1,5,6,13a-hexahydro-1H-indolo[3,2,1-de]pyrido[3,2,1-ij][1,5]naphthyridin-12-yl)-N,4-dimethyloxazole-5-carboxamide]

IC50 [2]: ≤ 1 µM
SMILES: CC[C@@]12C=C(c3nc(C)c(C(=O)OC)o3)n3c4c(c5ccccc53)CCN(CCC1)[C@H]42 [Example 59, Methyl-2-((4^1S,13aS)-13a-ethyl-2,3,4^1,5,6,13a-hexahydro-1H-indolo[3,2,1-de]pyrido[3,2,1-ij][1,5]naphthyridin-12-yl)-4-methyloxazole-5-carbonate]

IC50 [2]: 1 to 20 µM
SMILES: CC[C@@]12C=C(c3ncc(C)o3)n3c4c(c5ccccc53)CCN(CCC1)[C@H]42 [Example 51, 2-((4^1S,13aS)-13a-ethyl-2,3,4^1,5,6,13a-hexahydro-1H-indolo[3,2,1-de]pyrido[3,2,1-ij][1,5]naphthyridin-12-yl)-5-methyloxazole]

IC50 [2]: ≤ 1 µM
SMILES: CC[C@@]12C=C(c3nc4c(o3)CCCC4)n3c4c(c5ccccc53)CCN(CCC1)[C@H]42 [Example 55, 2-((4^1S,13aS)-13a-ethyl-2,3,4^1,5,6,13a-hexahydro-1H-indolo[3,2,1-de]pyrido[3,2,1-ij][1,5]naphthyridin-12-yl)-4,5,6,7-tetrahydrobenzo[d]oxazole]

area under the concentration-time curve (0-inf) ([3]; intravenous injection 1 mg/kg): 0.588 µM·h
clearance ([3]; male, dog, plasma, intravenous injection 1 mg/kg): 80.5 mL/min/kg
half-life ([3]; male, dog, plasma, intravenous injection 1 mg/kg, read-out: Half-life period (converted)): 6.03 h
bioavailability ([3]; male, dog, plasma, oral administration 3 mg/kg): 12.3%
Peak concentration ([3]; oral administration 3 mg/kg): 142 nM
Time to Peak ([3]; oral administration 3 mg/kg): 0.5 h
area under the concentration-time curve (0-inf) ([3]; oral administration 3 mg/kg): 0.216 µM·h
SMILES: CCOC(=O)C1=C[C@]2(CC)CCCN3CCc4c(n1c1ccccc41)[C@@H]32 [Vinpocetine, reference compound]

IC50 [2]: > 100 µM
SMILES: CC[C@@]12C=C(C(O)C(F)(F)F)n3c4c(c5ccccc53)CCN(CCC1)[C@H]42 (stereo partly drawn) [Example 1, 1-((4^1S,13aS)-13a-ethyl-2,3,4^1,5,6,13a-hexahydro-1H-indolyl[3,2,1-de]pyridyl[3,2,1-ij][1,5]naphthyridine-12-yl)-2,2,2-trifluoroethanol]
